Experimental data from patent US8648113B2, “Mixture and compounds from mycelia of Antrodia camphorata and use thereof” (Simpson Biotech Co., Ltd., priority 2004, dated 2014).
“And” between values parts separate entries of the source, which are not always exact repeats. Equal values may be shown once. Marks after values point to notes of the source that are not given here.

Legend:
[1] = system: LLC (Lewis lung carcinoma) cell line; experiment: Cytotoxic assay, in vitro LLC tumor cell assay (SRB method); conditions: for 50% Growth Inhibition (ED50): SRB method
[2] = system: Wistar derived male rats, D-galactosamine induced hepatic injury; experiment: Hepatic Injury, D-Galactosamine in rats; format: in vivo, rat; conditions: 300 mg/kg × 3 PO (Guanine, reference)
Procedure: Groups of 5 Wistar derived male rats weighing 200±20 g were used. Each animal was treated with a single injection of D-galactosamine (500 mg/kg, IP) Test substance was administered orally at 0.5 hour before and 4 hours as well as 8 hours after D-galactosamine administration and animals were sacrificed 24 hours later. […] Reduction in ALT or AST activity by 30 percent or more (30%), relative to the vehicle treated control animal indicates significant protection.
Test substance and vehicle were administered orally at 0.5 hour before and 4, 8 hours after a single dose of galactosamine (500 mg/kg, IP). The rats were sacrificed 24 hours after galactosamine injection and the ALT and AST values were determined A reduction of 30% in the ALT and AST relative to the vehicle group is considered significant. • 3. Winter et al., Inflammation, Carrageenan, Proc. Soc.

[3] = system: ICR derived male mice on high fat diet; experiment: Cholesterol, Serum (Total, HDL, Total/HDL Ratio), Diet-Induced in mice; format: in vivo, mouse; conditions: 100 mg/kg × 3 PO
Procedure: Groups of 5 ICR derived male mice weighing 22±2 g were kept on a high fat diet (g/100 g: coconut oil, 8; cholesterol, 1.0; cholic acid, 0.3; lard 2; standard chow 88.7) for 7 days to induce hypercholesterolemia. Test substance was administered orally on days 5, 6 and 7. After fasting overnight, serum was obtained from each mouse and assayed for total cholesterol (Total), high density lipoprotein (HDL) and percent change in Total/HDL. A decrease of 20 percent or more (20%) in serum Total or increase of 20 percent or more (≧20%) in serum HDL or decrease of 40% or more (≧40%) in the Total/HDL ratio relative to vehicle treated control animals is considered significant.
Vehicle, test substance or reference positive compound was administered orally (PO) on days 5, 6 and 7 after being fed a high cholesterol diet. Twenty-four hours after the third dose, the overnight-fasted test animals were sacrificed for assessing serum total cholesterol (Total) and high density lipoprotein (HDL). Decrease of 20 percent or more (20%) in serum Total or increase of 20 percent or more (20%) in serum HDL or decrease of 40% or more (40%) in the Total/HDL ratio is considered significant. • 2. Hepatic Injury, D-Galactosamine (Wrobel et al., J. Med. Chem. 41: 1084, 1998)

[4] = system: B16-F0 murine melanoma cells; experiment: Tumor, Syngeneic, Melanoma, B16-F0 Cell in C57BL/6J mice; conditions: B16-F0 in C57BL/6J mice, 2 mg/kg × 6 IP; for Survival Time, Days of Post-treatment: monitored to day 45
[5] = system: Long Evans derived rats, carrageenan-induced paw edema; experiment: Inflammation, Carrageenan in rats (hind paw edema); format: in vivo, rat; conditions: 150 mg/kg PO; for Paw Volume Diff: R.P. minus L.P.; for Paw Volume L.P.: left (not injected) hindpaw; for Paw Volume R.P.: right (injected) hindpaw, 3 hours
Procedure: Hind paw edema, as a measure of inflammation, was recorded 3 hours after carrageenan administration using a plethysmometer with water cell (25 mm diameter). Reduction of hind paw edema by 30 percent or more (30%) indicates significant acute anti-inflammatory activity. […] Reduction of hindpaw edema by 30 percent or more (30%), shown in parenthesis, indicates significant acute anti-inflammatory activity. • 4. […] Anticancer Research 19: 1027-1032, 1999)

[6] = system: Wistar derived male or female rats; experiment: Cholinergic Agonism, Central/Peripheral in rats (chewing, salivation); format: in vivo, rat; parameters: key to Peripheral: Salivation: +: exhibiting salivation; conditions: 30 mg/kg IP
[7] = Ave. of 3 rats (Tables 12 and 13: two experiments), 150 mg/kg
[8] = individual rats (Tables 12 and 13: two experiments), 150 mg/kg
[9] = 30-60 min after dosing, individual animals
[10] = positive in 2 or more of 3 = activity

Question: With `CC(C)=CCOc1ccc(C2=C(CC(C)C)C(=O)NC2=O)cc1` [Compound 2, 3-Isobutyl-4-[4-(3-methyl-2-butenyloxy)phenyl]-1H-pyrrole-2,5-dione] as the compound, how does the “cytotoxic activity (in words)” value [1] read?
Answer: cytotoxic

Question: What about the “50% Growth Inhibition (ED50)” value [1] of the same compound?
Answer: 3.6 µg/mL

Question: How did the “Serum ALT” value ([2]; individual rats, 300 mg/kg) turn out when `Nc1nc2nc[nH]c2c(=O)[nH]1` [Guanine] was run?
Answer: 508 U/L and 532 U/L and 412 U/L and 436 U/L and 636 U/L

Question: What about the “Serum AST” value ([2]; individual rats, 300 mg/kg) of the same compound?
Answer: 656 U/L and 912 U/L and 776 U/L and 652 U/L and 1028 U/L

Question: And the “Serum ALT Dec. %” value ([2]; relative to vehicle)?
Answer: (34) %

Question: And the “Serum AST Dec. %” value ([2]; relative to vehicle)?
Answer: (33) %

Question: What does the source list for `CC(C)(Oc1ccc(CCNC(=O)c2ccc(Cl)cc2)cc1)C(=O)O` [Benzafibrate]?
Answer: HDL Ave. ([3]; Ave. of 5 mice): 113; Total (serum total cholesterol) Ave. ([3]; Ave. of 5 mice): 228; Total/HDL Ave. ([3]; Ave. of 5 mice): 2.02; HDL Indiv. ([3]; individual mice, 100 mg/kg): 91 and 120 and 133 and 123 and 97; Total (serum total cholesterol) Indiv. ([3]; individual mice, 100 mg/kg): 230 and 214 and 225 and 231 and 242; Total/HDL Indiv ([3]; individual mice, 100 mg/kg): 2.53 and 1.78 and 1.69 and 1.88 and 2.49; HDL % Dce ([3]; relative to vehicle): (43) %; Total % Dce ([3]; relative to vehicle): (37) %; Total/HDL % Dce ([3]; relative to vehicle): (56) %

Question: For `CO[C@@]12[C@H](COC(N)=O)C3=C(C(=O)C(C)=C(N)C3=O)N1C[C@@H]1N[C@@H]12` [Mitomycin], which “Survival Time T/C (%)” value [4] is on record?
Answer: 125* %

Question: And the “Tumor Weight T/C(%), Day 1” value [4]?
Answer: 100%

Question: And the “Tumor Weight T/C(%), Day 8” value [4]?
Answer: 0* %

Question: And the “Tumor Weight T/C(%), Day 11” value [4]?
Answer: 16* %

Question: And the “Tumor Weight T/C(%), Day 15” value [4]?
Answer: 27* %

Question: And the “Tumor Weight T/C(%), Day 18” value [4]?
Answer: 32* %

Question: And the “Tumor Weight T/C(%), Day 22” value [4]?
Answer: 25* %

Question: What about the “Body Weight, Day 1” value ([4]; Mean ± SEM) of the same compound?
Answer: 21.4 ± 1.1 g

Question: What about the “Body Weight, Day 8” value ([4]; Mean ± SEM) of the same compound?
Answer: 22.2 ± 0.8 g

Question: What about the “Body Weight, Day 11” value ([4]; Mean ± SEM) of the same compound?
Answer: 22.0 ± 1.1 g

Question: What about the “Body Weight, Day 15” value ([4]; Mean ± SEM) of the same compound?
Answer: 23.0 ± 1.0 g

Question: What about the “Body Weight, Day 18” value ([4]; Mean ± SEM) of the same compound?
Answer: 24.0 ± 1.1 g

Question: What about the “Body Weight, Day 22” value ([4]; Mean ± SEM) of the same compound?
Answer: 26.3 ± 1.9 g

Question: And the “Tumor Weight, Day 1” value ([4]; Mean ± SEM)?
Answer: 0 mg

Question: And the “Tumor Weight, Day 8” value ([4]; Mean ± SEM)?
Answer: 0 ± 0 mg

Question: What about the “Tumor Weight, Day 11” value ([4]; Mean ± SEM) of the same compound?
Answer: 34 ± 15 mg

Question: And the “Tumor Weight, Day 15” value ([4]; Mean ± SEM)?
Answer: 119 ± 44 mg

Question: And the “Tumor Weight, Day 18” value ([4]; Mean ± SEM)?
Answer: 391 ± 142 mg

Question: And the “Tumor Weight, Day 22” value ([4]; Mean ± SEM)?
Answer: 587 ± 260 mg

Question: What about the “Survival Time, Days of Post-treatment” value ([4]; Mean ± SEM) of the same compound?
Answer: 34.0 ± 4.7 days

Question: What about the “Body Weight, Day 8” value ([4]; individual mice) of the same compound?
Answer: 20 g

Question: And the “Body Weight, Day 15” value ([4]; individual mice)?
Answer: 20 g

Question: What about the “Body Weight, Day 22” value ([4]; individual mice) of the same compound?
Answer: 30 g

Question: And the “Tumor Weight, Day 1” value ([4]; individual mice)?
Answer: 0 mg

Question: And the “Tumor Weight, Day 8” value ([4]; individual mice)?
Answer: 0 mg

Question: And the “Body Weight, Day 1” value ([4]; individual mice, 2 mg/kg)?
Answer: 25 g and 22 g (2×) and 19 g (2×)

Question: What about the “Body Weight, Day 8” value ([4]; individual mice, 2 mg/kg) of the same compound?
Answer: 25 g and 22 g (2×) and 21 g

Question: And the “Body Weight, Day 11” value ([4]; individual mice, 2 mg/kg)?
Answer: 26 g and 22 g (2×) and 21 g and 19 g

Question: And the “Body Weight, Day 15” value ([4]; individual mice, 2 mg/kg)?
Answer: 25 g (2×) and 21 g and 24 g

Question: What about the “Body Weight, Day 18” value ([4]; individual mice, 2 mg/kg) of the same compound?
Answer: 24 g and 27 g and 22 g and 26 g and 21 g

Question: What about the “Body Weight, Day 22” value ([4]; individual mice, 2 mg/kg) of the same compound?
Answer: 27 g (2×) and 21 g and Died

Question: And the “Tumor Weight, Day 11” value ([4]; individual mice, 2 mg/kg)?
Answer: 0 mg (2×) and 64 mg and 68 mg and 41 mg

Question: And the “Tumor Weight, Day 15” value ([4]; individual mice, 2 mg/kg)?
Answer: 36 mg and 136 mg and 0 mg and 213 mg and 207 mg

Question: And the “Tumor Weight, Day 18” value ([4]; individual mice, 2 mg/kg)?
Answer: 256 mg and 849 mg and 0 mg and 525 mg and 327 mg

Question: And the “Tumor Weight, Day 22” value ([4]; individual mice, 2 mg/kg)?
Answer: 437 mg and 1248 mg and 0 mg and 663 mg and Died

Question: And the “Survival Time, Days of Post-treatment” value ([4]; individual mice, 2 mg/kg)?
Answer: 45^a day (2×) and 28 day and 30 day and 22 day

Question: Which “Paw Volume Diff” value [5, 7] does the source give for `CC(=O)Oc1ccccc1C(=O)O` [Aspirin] here?
Answer: 50 ×0.01 ml and 52 ×0.01 ml

Question: What about the “Paw Volume Diff” value [5, 8] of the same compound?
Answer: 50 ×0.01 ml and 44 ×0.01 ml and 57 ×0.01 ml and 43 ×0.01 ml and 48 ×0.01 ml and 65 ×0.01 ml

Question: What about the “Paw Volume L.P.” value ([5]; Ave. of 3 rats (Tables 12 and 13: two experiments)) of the same compound?
Answer: 103 ×0.01 ml

Question: What about the “Paw Volume L.P.” value [5, 8] of the same compound?
Answer: 102 ×0.01 ml and 106 ×0.01 ml and 103 ×0.01 ml and 101 ×0.01 ml and 104 ×0.01 ml

Question: And the “Paw Volume R.P.” value [5, 7]?
Answer: 154 ×0.01 ml and 155 ×0.01 ml

Question: What about the “Paw Volume R.P.” value [5, 8] of the same compound?
Answer: 152 ×0.01 ml and 146 ×0.01 ml and 163 ×0.01 ml and 149 ×0.01 ml and 169 ×0.01 ml

Question: For `COc1cccc2c1C(=O)c1c(O)c3c(c(O)c1C2=O)C[C@@](O)(C(=O)CO)C[C@@H]3O[C@H]1C[C@H](N)[C@H](O)[C@H](C)O1` [Adriamycin], which “50% Growth Inhibition (ED50)” value [1] is on record?
Answer: 0.14 µg/mL

Question: How did the “Central: Chewing” value [6, 9] turn out when `COC(=O)C1=CCCN(C)C1` [Arecoline-HBR] was run?
Answer: + (exhibiting more than 10 seconds of chewing behavior (mouth and/or tongue movements) measured cumulatively)

Question: And the “Peripheral: Salivation” value [6, 9]?
Answer: +

Question: And the “Central: Score (positive animals of 3)” value [6, 10]?
Answer: (3/3)

Question: And the “Peripheral: Score (positive animals of 3)” value [6, 10]?
Answer: (3/3)
